Source: patent US12168055B2, “Sonosensitization” (priority 2019, dated 2024)
Where two headings read alike, the source gives them in different places.

Experiments:
[1] = system: C6 glioma tumor cells
Method: Male Wistar rats received injections of 4×10^5 C6 glioma tumor cells by injection into the right cortex of the brain. On day 7 after injection, rats were administered 5-aminolevulinic acid (20 mg/kg or 0 mg/kg, Levulan®, DUSA Pharmaceuticals, Wilmington, MA) orally, three hours prior to treatment.
Rats were anesthetized and set inside an MRI-guided focused ultrasound system (“FUS”, RK300, FUS Instruments, Toronto, Canada), having a 25 mm diameter spherically curved transducer (resonant frequency f0=1.06 MHz, focal number=0.8). The FUS, with rat, was then inserted into a 7 Telsa MRI system (Brucker BioSpec 70/30 USR, Bruker Ltd., Milton, Ontario, Canada). The MRI was used to precisely aim the FUS device at the brain tumor. Rats were then sonicated at one of four spatial peak temporal average intensities (ISPTA) (6.9 W/cm^2, 13.8 W/cm^2, 27.6 W/cm^2, or 55.2 W/cm^2) for 20 minutes. One group (N=6) was cyclicly sonicated at 27.6 W/cm^2 for 20 minutes, divided into 16 sonication periods of 85 seconds, separated by rest periods of 60 seconds (the multiple point, or “MP” group). In the MP group, 16 individual points within the tumor were sonicated. Control groups (N=5 each) received 5-ALA without FUS treatment, FUS treatment without 5-ALA, or neither 5-ALA nor FUS. Tumor temperature was monitored during sonication using magnetic resonance thermometry. Normalized tumor volume was measured by MRI on days 7, 14, 21, 28, and 35 following injection.

[2] = system: SAS cells; details: cited from earlier work; for cell viability: about 2 W/cm^2, 2 min
[3] = system: U87 and U251 glioma cells, and U251^Oct-3/4 glioma stem-like cells; details: 5-ALA 1 mM + ultrasound 3 MHz, 2 W/cm^2, 20% duty cycle, 3 min; cited from earlier work
[4] = system: normal control cells; details: 5-ALA 1 mM + ultrasound 3 MHz, 2 W/cm^2, 20% duty cycle, 3 min; cited from earlier work
[5] = system: human U87 glioma cells or U251^Oct-3/4 glioma stem-like cells; details: 5-ALA 100 mg/kg + ultrasound 2.2 MHz, 0.5 or 2.0 W/cm^2, 3 min, weekly for 3 weeks; cited from earlier work
[6] = system: C6 rat glioma cells; details: 5-ALA 100 mg/kg orally 3 h before ultrasound 1.04 MHz, 10 W/cm^2, 5 min; vs 5-ALA or ultrasound alone; cited from earlier work
[7] = system: C6 glioma cells; details: 5-ALA 60 mg/kg or Radachlorin 40 mg/kg + ultrasound 1.0 MHz, 2.65 W/cm^2, 20 min; vs control groups; cited from earlier work
[8] = system: rat osteosarcoma UMR-106 cells; details: 5-ALA 250 mg/kg i.v. 8 h before ultrasound 1.0 MHz, 2.5 W/cm^2, 8 min daily for 10 days; vs all other groups; cited from earlier work
[9] = system: normal brain tissue; details: cited from earlier work
[10] = system: human THP-1 monocytes (induced to become macrophages and foam cells); details: berberine 30 μg/mL, ultrasound 1.0 MHz, 0.4 W/cm^2, 10 min; cited from earlier work
[11] = system: mammary tumors; details: porfimer sodium 2.5 mg/kg or higher i.v. 24 h before ultrasound 1.92 MHz, 15 min, 3 W/cm^2 or higher; cited from earlier work

**Q.** For NCC(=O)CCC(=O)O [5-ALA, 5-aminolevulinic acid], which “survival, multiple point (MP) group” value ([1]; 5-ALA 20 mg/kg + FUS 27.6 W/cm^2, 16 points, 16 periods of 85 s with 60 s rest) is on record?
**A.** greatest increase in survival

**Q.** And the survival ([1]; 5-ALA 20 mg/kg orally 3 h before FUS (1.06 MHz, 20 min), all experimental groups)?
**A.** improved survival

**Q.** What about the tumor growth ([1]; 5-ALA 20 mg/kg orally 3 h before FUS (1.06 MHz, 20 min), all experimental groups vs control animals) of the same compound?
**A.** inhibited tumor growth

**Q.** What about the tissue damage ([1]; 5-ALA 20 mg/kg, sonication at 55.2 W/cm^2) of the same compound?
**A.** suffered tissue damage

**Q.** And the normalized tumor volume ([1]; 5-ALA only group (20 mg/kg orally), no FUS)?
**A.** 24+6 mm^3

**Q.** And the “subjects surviving past 60 days” value ([1]; MP group: 5-ALA 20 mg/kg + FUS 27.6 W/cm^2 at 16 points)?
**A.** 50%

**Q.** And the “SAS cell apoptosis, intracellular reactive oxygen species, and lipid peroxidation” value ([2]; 10 μg/mL 5-ALA added to ultrasound, vs ultrasound alone)?
**A.** significantly increased these effects

**Q.** And the cell viability ([2]; 5-ALA 1 μg/mL 4 h before ultrasound 1.05 MHz)?
**A.** 88%

**Q.** And the cell viability ([2]; 5-ALA 10 μg/mL 4 h before ultrasound 1.05 MHz)?
**A.** 75%

**Q.** And the cell viability ([2]; 5-ALA 50 μg/mL 4 h before ultrasound 1.05 MHz)?
**A.** 62%

**Q.** What about the “cytotoxicity to tumor cells” value [3] of the same compound?
**A.** substantially cytotoxic to all tumor cells tested

**Q.** And the “cytotoxicity to normal control cells” value [4]?
**A.** not to normal control cells

**Q.** And the “survival of treated mice” value [5]?
**A.** significantly improved the survival

**Q.** And the tumor size [6]?
**A.** significantly smaller tumors

**Q.** What about the tumor size [7] of the same compound?
**A.** significantly smaller in size

**Q.** What about the tumor volumes [8] of the same compound?
**A.** significantly smaller than all other groups

**Q.** For O=C([O-])c1c(Cl)c(Cl)c(Cl)c(Cl)c1-c1c2cc(I)c(=O)c(I)c-2oc2c(I)c([O-])c(I)cc12.[Na+].[Na+] [Rose Bengal], which rats displaying lesions ([9]; Rose Bengal 10 mg/kg, ultrasound 110 W/cm^2, 3 min) is on record?
**A.** 5/5

**Q.** And the rats displaying lesions ([9]; Rose Bengal 10 mg/kg, ultrasound 110 W/cm^2, 5 min)?
**A.** 6/7

**Q.** What about the rats displaying lesions ([9]; Rose Bengal 50 mg/kg, ultrasound 110 W/cm^2, 3 min) of the same compound?
**A.** 5/5

**Q.** And the rats displaying lesions ([9]; Rose Bengal 50 mg/kg, ultrasound 110 W/cm^2, 5 min)?
**A.** 6/6

**Q.** What about the “lesions in normal brain tissue” value ([9]; ultrasound 25 W/cm^2, with or without Rose Bengal) of the same compound?
**A.** no lesions

**Q.** For COc1ccc2cc3[n+](cc2c1OC)CCc1cc2c(cc1-3)OCO2 [berberine], which autophagy in macrophages [10] is on record?
**A.** induced autophagy in macrophages

**Q.** What about the cholesterol efflux [10] of the same compound?
**A.** increased cholesterol efflux

**Q.** With porfimer sodium as the compound, how does the tumor growth [11] read?
**A.** effectively inhibited tumor growth
